# Entries after “also recorded” stand apart in the source; their conditions may differ. Like-named read-outs stand apart in the source and are kept apart here.
# Key:
# verocytotoxin 1 = verocytotoxin 1 (Bacteriophage H30, UniProt P69178)
# VT2 [1] = target: T1, VT2 (Escherichia coli, UniProt Q07871); type: binding, E. coli
# VT2 [2] = target: T1, VT2; type: cell-based, E. coli
# Shiga toxin [3] = target: T2, Shiga toxin (Shigella dysenteriae, UniProt Q7BQ98); settings: cited from earlier work
# Shiga toxin [4] = target: T2, Shiga toxin; settings: cited from earlier work; remark: listed apart in the source
# VT1 toxin = VT1 toxin (Bacteriophage H30, UniProt P69178)
# [5] = natural verocytotoxin, glycolipid dotted at 0.01-50 nmol
# [6] = purified natural VT1, tlc or dot blot, antiverocytotoxin and immunoperoxidase conjugate
# Sequence of verocytotoxin 1 (P69178 whole entry, looked up): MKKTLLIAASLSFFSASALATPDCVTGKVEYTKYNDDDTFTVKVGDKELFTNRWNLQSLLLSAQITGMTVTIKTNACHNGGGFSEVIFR
# T2 sequence (Q7BQ98 whole entry, looked up): as the sequence (P69178 whole entry, looked up) above
# Sequence of VT1 toxin (P69178 whole entry, looked up): as above
compound,measurement,setting,value
"CCCCCCCCCCCCCC=CC(O)C(COC1OC(CO)C(OC2OC(CO)C(OC3OC(CO)C(O)C(OC4OC(CO)C(O)C(O)C4NC(C)=O)C3O)C(O)C2O)C(O)C1O)NC(=O)CCCCCCCCCCCCCCC (stereo not drawn) [GbOse4 cer, globotetraosyl ceramide]",verocytotoxin binding above background (125I-Protein A binding curves),verocytotoxin 1; [5],No binding above background
same,verocytotoxin binding to glycolipid,verocytotoxin 1; [6],No binding
same,VT2 binding to glycolipid,VT2 [1],no binding; also recorded: does not bind
same,VT2 binding by liposomal adsorption,VT2 [2],at least minimal
same,Shiga toxin binding to glycolipid,Shiga toxin [3],residual binding
"CCCCCCCCCCCCCC=CC(O)C(CO[C@@H]1O[C@H](CO)[C@@H](O[C@@H]2O[C@H](CO)[C@H](O)[C@H](O)[C@H]2O)[C@H](O)[C@H]1O)NC(=O)CCCCCCCCCCCCCCC (stereo partly drawn) [LacCer, lactosyl ceramide]",verocytotoxin binding above background (125I-Protein A binding curves),verocytotoxin 1; [5],No binding above background
same,verocytotoxin binding to glycolipid,verocytotoxin 1; [6],No binding
same,VT2 binding to glycolipid,VT2 [1],no binding
N[C@H]1[C@H](O[C@H]2[C@H](O)[C@@H](N)[C@H](O[C@H]3[C@H](O)[C@@H](N)C(O)O[C@@H]3CO)O[C@@H]2CO)O[C@H](CO)[C@@H](O)[C@@H]1O (stereo partly drawn) [chiotriose],protection against Shiga toxin cytotoxicity,Shiga toxin [4],protects against cytotoxicity
same,effect on Shiga toxin Gb0se3 cer binding,Shiga toxin [3],little effect
CCCCCCCCCCCCC/C=C/[C@@H](O)[C@@H](N)CO[C@@H]1O[C@H](CO)[C@@H](O[C@@H]2O[C@H](CO)[C@H](O[C@H]3O[C@H](CO)[C@H](O)[C@H](O)[C@H]3O)[C@H](O)[C@H]2O)[C@H](O)[C@H]1O [deacylated globotriosyl ceramide],amount of purified toxin the assay can detect,VT1 toxin,less than 5 pg
same,effect of deacylation on verocytotoxin binding,VT1 toxin,does not inhibit verocytotoxin binding
CCCCCCCCCCCCCC=CC(O)C(CO[C@@H]1O[C@H](CO)[C@H](O[C@H]2O[C@H](CO)[C@H](O)[C@H](O)[C@H]2O)[C@H](O)[C@H]1O)NC(=O)CCCCCCCCCCCCCCC (stereo partly drawn) [galabiosyl ceramide],VT1 binding to Daudi cell glycolipids,verocytotoxin 1; glycolipids contained in Daudi cells,VT1-binding
same,VT2 binding after digestion with αgalactosidase,VT2 [1],binding is removed
same,VT2 binding to glycolipid,VT2 [1],binds
digalactosyl diglyceride [DGDG],verocytotoxin binding above background (125I-Protein A binding curves),verocytotoxin 1,No binding above background
same,verocytotoxin binding to glycolipid,verocytotoxin 1,unreactive with the toxin
same,VT2 binding to glycolipid,VT2 [1],loss of VT2 binding; also recorded: do not bind
